Data as given in publication PMC6797721, “Unveil the Anticancer Potential of Limomene Based Therapeutic Deep Eutectic Solvents” (Scientific Reports, 2019).

Key:
Format in all cases: cell-based, Human
Caco-2 cells = assay: Cytotoxicity assay (MTS) in confluent non-differentiated Caco-2 cells; settings: isolated compounds; Caco-2, 24 hours, mean ± SD
Procedure: (§1) Human Caco-2 and HT29 cell lines were obtained from Deutsche Sammlung von Mikroorganismen und Zellkulturen (DSMZ, Germany) and American Type Culture Collection (ATCC, USA), respectively. These cell lines were cultured in RPMI 1640 medium supplemented with 10% of heat-inactivated fetal bovine serum (FBS) and 1% […] (PS). Cells were maintained at 37°C with 5% CO2 in a humidified incubator and routinely grown as a monolayer in 75 cm^2 culture flasks. The cell culture medium and supplements were purchased from Invitrogen (Gibco, Invitrogen Corporation, UK). Cytotoxicity assay was performed using confluent and non-differentiated Caco-2 cells, a model considered to assess the effect of chemical/food compounds and nano/microparticles on the intestinal function since it shares characteristics of the enterocytes. The assay was performed as previously described by Rodrigues et al.[71]. Briefly, Caco-2 cells were seeded into 96-well plates at a density of 2 × 10^4 cells/well and allowed to grow for 7 days, with medium renewal every 48 hours. At day 7, cells were incubated with the samples diluted in culture medium. Cells incubated only with culture medium were considered as control. After 24 hours, cells were washed once with PBS (Sigma-Aldrich, USA) and cell viability was assessed using CellTiter 96® AQueous One Solution Cell Proliferation Assay (Promega, USA) containing MTS reagent, according to manufacturer's instructions. The absorbance was measured at 490 nm using a Spark® 10 M Multimode Microplate Reader (Tecan Trading AG, Switzerland) and cell viability was expressed in terms of percentage of living cells relatively to the control. At least three independent experiments were performed in triplicate. All data were expressed as mean ± standard errors (SD). GraphPad Prism 6 software was used to calculate EC50 values (the concentration of sample necessary to decrease 50% of cell population) and to analyse significant differences between data set through One-Way Analysis of Variance (ANOVA) following Dunnett's multiple comparison tests.

HT29 cells [1] = assay: Antiproliferative assay in HT29 cell monolayer (MTS); settings: isolated compounds, HT29, 24 hours, mean ± SD
Procedure: Human Caco-2 and HT29 cell lines were obtained from Deutsche Sammlung von Mikroorganismen und Zellkulturen (DSMZ, Germany) and American Type Culture Collection (ATCC, USA), respectively. These cell lines were cultured in RPMI 1640 medium supplemented with 10% of heat-inactivated fetal bovine serum (FBS) and 1% […] (PS). Cells were maintained at 37°C with 5% CO2 in a humidified incubator and routinely grown as a monolayer in 75 cm^2 culture flasks. The cell culture medium and supplements were purchased from Invitrogen (Gibco, Invitrogen Corporation, UK). Antiproliferative effect of […] and standard compounds was evaluated in HT29 cells, as described elsewhere. Briefly, cells were seeded at a density of 1 × 10^4 cells/well in 96-well culture plates. After 24 hours cells were incubated with different concentrations of the samples diluted in culture medium. Cells incubated only with culture medium were considered as control. Cell proliferation was measured after 24 hours using MTS, as mentioned above. Results were expressed in terms of percentage of living cells relatively to the control. At least three independent experiments were performed in triplicate. All data were expressed as mean ± standard errors (SD). GraphPad Prism 6 software was used to calculate EC50 values (the concentration of sample necessary to decrease 50% of cell population) and to analyse significant differences between data set through One-Way Analysis of Variance (ANOVA) following Dunnett's multiple comparison tests.

[2] = Cytotoxicity assay (MTS) in confluent non-differentiated Caco-2 cells; settings: human, confluent, non-differentiated Caco-2 cells; isolated compounds; Caco-2, 24 hours, mean ± SD
Procedure: as §1

HT29 cells [3] = assay: Cell cycle assessment by flow cytometry; settings: HT29, 24 hours, non-cytotoxic concentrations
Procedure: HT29 cell line was seeded at a density of 1 × 10^6 cells in a 25 cm^2 culture flask for 24 hours. Then, cells were incubated in different concentrations of the samples diluted in culture medium and culture medium alone (as control) for 24 hours. For flow cytometry analysis of DNA content, bare nuclei were prepared as described elsewhere. Briefly, cells were detached from the culture flasks with trypsin-EDTA 0.5% and washed one time with cold PBS. Finally, 1 × 10^6 cells were re-suspended in 1 mL of staining solution containing […] of Propidium Iodide (Sigma-Aldrich, USA), 1.5% (v/v) of Triton X-100 (Sigma-Aldrich, USA), 0.7 U/mL of DNase/protease-free Ribonuclease A (Thermo Scientific, USA) and 0.01 M of NaCl, followed by incubation at room temperature in the dark for 2 hours. Cell cycle was assessed by flow cytometry, using a CyFlow space (Partec GmbH) instrument, registering 30.000 events/sample as described previously.

HT29 cells [4] = assay: Caspase-3 activity induction (apoptosis); settings: HT29, 24 hours, 2 mM
Procedure: Apoptosis was evaluated by caspase-3 activity using NucView488TM and MitoView633TM Apoptosis Assay Kit (Biotium, USA) that allows the staining of living cells with a far-red fluorescent dye MitoView633TM, while the intracellular caspase-3/7 activity and cells nuclei morphological changes were stained with bright green fluorescent dye NucView488TM. HT29 cells were seeded at a density of 40.000 cell/cm^2 at 24-well plate for 24 hours. Then, cells were incubated another 24 hours with different concentrations of the samples diluted in culture medium and culture medium alone (as control). Staining was performed with 200 μL/well of culture medium containing 1 μL of NucView488TM and 1 μL of MitoView633TM for 2 hours.

| EC50 (HT29 cells [1]; Homo sapiens, HT-29) [mM] | Compound | EC50 (Caco-2 cells) [mM] | EC50 (HT29 cells [1]) [mM] | EC50 at 24 h [2] [mM] | Effect on cell cycle (HT29 cells [3]) | Induction of apoptosis (caspase-3 activity) (HT29 cells [4]) |
| --- | --- | --- | --- | --- | --- | --- |
|  | CCCCCCCCCC(=O)O [CA, Capric acid] | 1.33 ± 0.223 | 0.341 ± 0.081 |  |  |  |
| 2.35 ± 0.088 | CC(C)Cc1ccc(C(C)C(=O)O)cc1 (centres unmarked) [IBU, Ibuprofen] |  |  | 2.89 ± 0.059 | promoted cell cycle arrest in G1-phase |  |
| 4.73 | CC1CCC(C(C)C)C(O)C1 (centres unmarked) [Menthol, menthol] |  |  | 8.08 ± 0.81 |  |  |
|  | S-Limonene | 2.64 ± 0.108 | 0.661 ± 0.025 |  | promoted cell cycle arrest in G1-phase | capable of inducing apoptosis via caspase-3 activity |
